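Briefly, cells in 96-well plates were exposed to five compound concentrations for 48 h, and endpoints were estimated by linear interpolation. Abbreviation: GI50, concentration required for 50% inhibition of growth.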 The source made the active and inactive calls. No stated cut-off is given here; in the data, active = GI50 up to about 1.1 µM and inactive = higher.
Columns and labels:
Experiment in all cases: NCI-60 cell line screen, 48 h
[1] = test system: Hs-578T
[2] = test system: MCF7
[3] = test system: SNB-75
[4] = test system: BT-549
[5] = test system: SK-OV-3
[6] = test system: HCC 2998
[7] = test system: NCI-H23
[8] = test system: EKVX
[9] = test system: SF-295
[10] = test system: NCI-H460
[11] = test system: OVCAR-3
[12] = test system: A498
[13] = test system: SW-620
[14] = test system: SN12C
[15] = test system: HT-29
[16] = test system: NCI-H522
[17] = test system: U-251
[18] = test system: MDA-N
[19] = test system: HCT-15
[20] = test system: CCRF-CEM

Row | Compound | GI50 [1] | GI50 [2] | GI50 [3] | GI50 [4] | GI50 [5] | GI50 [6] | GI50 [7] | GI50 [8] | GI50 [9] | GI50 [10] | GI50 [11] | GI50 [12] | GI50 [13] | GI50 [14] | GI50 [15] | GI50 [16] | GI50 [17] | GI50 [18] | GI50 [19] [µM] | GI50 [20]
1 | CCOC(=O)c1nc2cc(Cl)ccc2[nH]c1=O | > 100 µM (inactive) | > 100 µM (inactive) | < 0.01 µM (active) | > 100 µM (inactive) | > 100 µM (inactive) | > 100 µM (inactive) | > 100 µM (inactive) | > 100 µM (inactive) | > 100 µM (inactive) | 53.7 µM (inactive) | > 100 µM (inactive) | > 100 µM (inactive) | > 100 µM (inactive) | > 100 µM (inactive) | > 100 µM (inactive) | > 100 µM (inactive) | > 100 µM (inactive) | > 100 µM (inactive) | > 100 | > 100 µM (inactive)
2 | O=C(O)c1ccccc1C(=O)Nc1cc2c(cc1Br)-c1ccccc1C2=O | 91.2 µM (inactive) | > 100 µM (inactive) | 47.5 µM (inactive) | > 100 µM (inactive) | > 100 µM (inactive) | 23.2 µM (inactive) | > 100 µM (inactive) | > 100 µM (inactive) |  | > 100 µM (inactive) | 40.6 µM (inactive) | > 100 µM (inactive) | > 100 µM (inactive) | > 100 µM (inactive) | > 100 µM (inactive) | 59.7 µM (inactive) | 87.5 µM (inactive) | > 100 µM (inactive) | > 100 | 45.9 µM (inactive)
3 | CC[C@@]1(O)C(=O)OCc2c1cc1n(c2=O)Cc2c-1nc1ccc(O)cc1c2CC[Si](C)(C)C | 0.681 µM (active) | < 0.001 µM (active) | < 0.001 µM (active) | 0.0205 µM (active) | < 0.001 µM (active) | 0.0174 µM (active) | < 0.001 µM (active) | 0.041 µM (active) | 0.00131 µM (active) | < 0.001 µM (active) | 0.0247 µM (active) | 0.00383 µM (active) | 0.00438 µM (active) | < 0.001 µM (active) | 0.012 µM (active) | 0.00291 µM (active) | < 0.001 µM (active) | 0.0133 µM (active) | 0.102 | < 0.001 µM (active)
4 | COC1=CC(=O)C(C2CC(=O)c3c(O)cc(O)cc3O2)=CC1=O (configuration not stated) | 33.5 µM (inactive) | 22.9 µM (inactive) | 23.6 µM (inactive) | 19.8 µM (inactive) | 36.8 µM (inactive) | 16.8 µM (inactive) | 20.5 µM (inactive) | 16.6 µM (inactive) | 19.2 µM (inactive) | 23 µM (inactive) | 18.5 µM (inactive) | 29.9 µM (inactive) | 20.2 µM (inactive) | 19.8 µM (inactive) | > 45.1 µM (inactive) | 15.4 µM (inactive) | 18.5 µM (inactive) | 15.6 µM (inactive) | 23.3 | 0.658 µM (active)
5 | CN(Cc1cnc2nc(N)nc(N)c2n1)c1ccc(C(=O)NCCCS(=O)(=O)O)cc1 | > 100 µM (inactive) | > 100 µM (inactive) | > 100 µM (inactive) | > 100 µM (inactive) | > 100 µM (inactive) | > 100 µM (inactive) | > 100 µM (inactive) | > 100 µM (inactive) | > 100 µM (inactive) | > 100 µM (inactive) | > 100 µM (inactive) | > 100 µM (inactive) | > 100 µM (inactive) | > 100 µM (inactive) | > 100 µM (inactive) | > 100 µM (inactive) | > 100 µM (inactive) | > 100 µM (inactive) | > 100 | 
6 | O=CC1OC(=O)c2cc(O)c(O)c(O)c2-c2c(cc(O)c(O)c2O)C(=O)OC1C1OC(=O)c2cc(O)c(O)c(O)c2-c2c(O)c(O)c3oc(=O)c4c(c(O)c(O)c5oc(=O)c2c3c54)-c2c(cc(O)c(O)c2O)C(=O)OCC1O (configuration not stated) | 44.7 µM (inactive) | 19.6 µM (inactive) | 13.9 µM (inactive) | > 100 µM (inactive) | 50.6 µM (inactive) | 33.4 µM (inactive) | 30.8 µM (inactive) | 16.9 µM (inactive) | 18.7 µM (inactive) | 20.7 µM (inactive) | 39.7 µM (inactive) | 5.94 µM (inactive) | 19.3 µM (inactive) | 16.6 µM (inactive) | 13.4 µM (inactive) | 18.2 µM (inactive) | 17.9 µM (inactive) | 20.4 µM (inactive) | 15.7 | 24.3 µM (inactive)
7 | CN(Cc1c2ccccc2cc2ccccc12)S(=O)(=O)c1ccc(-c2c3nc(c(-c4ccc(S(=O)(=O)N(C)Cc5c6ccccc6cc6ccccc56)cc4)c4ccc([nH]4)c(-c4ccc(S(=O)(=O)N(C)Cc5c6ccccc6cc6ccccc56)cc4)c4nc(c(-c5ccc(S(=O)(=O)N(C)Cc6c7ccccc7cc7ccccc67)cc5)c5ccc2[nH]5)C=C4)C=C3)cc1 | 57.8 µM (inactive) | > 100 µM (inactive) | 24.4 µM (inactive) | > 100 µM (inactive) | > 100 µM (inactive) | > 100 µM (inactive) | > 100 µM (inactive) | > 100 µM (inactive) | 63.7 µM (inactive) | > 100 µM (inactive) | > 100 µM (inactive) | > 100 µM (inactive) | > 100 µM (inactive) | > 100 µM (inactive) | > 100 µM (inactive) | > 100 µM (inactive) | 47.2 µM (inactive) | > 100 µM (inactive) | > 100 | > 100 µM (inactive)
8 | CC1CCC2(CC1)N=C1CCC(C)CC1C1(CCC(C)CC1)N2 (configuration not stated) | > 100 µM (inactive) | > 100 µM (inactive) | 19.6 µM (inactive) | > 100 µM (inactive) | > 100 µM (inactive) | 69 µM (inactive) | 95.7 µM (inactive) | > 10 µM (inactive) | > 100 µM (inactive) | > 100 µM (inactive) | > 100 µM (inactive) | > 100 µM (inactive) | 79.3 µM (inactive) |  | 86.7 µM (inactive) | 69.8 µM (inactive) | 78.7 µM (inactive) | 73.8 µM (inactive) | 84.7 | 24.3 µM (inactive)
9 | Oc1cccc2c1[nH]c1c(C3=C[C@@]4(O)CC/C=C\CCCCN5CC[C@@H]3[C@]3(CC6/C=C\CCCCN6[C@H]34)C5)nccc12 (some centres not stated) | 1.63 µM (inactive) | 0.7 µM (active) | 0.946 µM (active) | 1.81 µM (inactive) | 1.94 µM (inactive) | 0.384 µM (active) | 0.912 µM (active) | 1.23 µM (inactive) | 1.75 µM (inactive) | 0.65 µM (active) | 0.893 µM (active) | 2.24 µM (inactive) | 1.43 µM (inactive) | 0.891 µM (active) | 0.796 µM (active) | 1.01 µM (active) | 1.08 µM (active) | 0.771 µM (active) | 0.718 | 0.973 µM (active)
10 | CCOc1ccccc1NC(=O)C(=O)C(/C(=N/N)C(=O)OC)c1nc2ccc([N+](=O)[O-])cc2nc1O (configuration not stated) | > 100 µM (inactive) | > 100 µM (inactive) | 71.4 µM (inactive) | > 100 µM (inactive) | > 100 µM (inactive) | > 100 µM (inactive) |  | 97.5 µM (inactive) | > 100 µM (inactive) | > 100 µM (inactive) | > 100 µM (inactive) | > 100 µM (inactive) | > 100 µM (inactive) | > 100 µM (inactive) | > 100 µM (inactive) | 58.3 µM (inactive) | > 100 µM (inactive) | > 100 µM (inactive) | > 100 | > 100 µM (inactive)
11 | CC[C@@H]1CC[C@@H]2[C@H](CC[C@]3(C)[C@@H](OS(=O)(=O)c4ccc(C)cc4)CC[C@@H]23)[C@H]1CO | > 100 µM (inactive) | 43.3 µM (inactive) | 91 µM (inactive) | > 100 µM (inactive) |  | > 100 µM (inactive) | > 100 µM (inactive) | 12.2 µM (inactive) | > 100 µM (inactive) | > 100 µM (inactive) | > 100 µM (inactive) | > 100 µM (inactive) | > 100 µM (inactive) | 78.5 µM (inactive) | 27.3 µM (inactive) | > 100 µM (inactive) | > 100 µM (inactive) | > 100 µM (inactive) | 82.4 | > 100 µM (inactive)
12 | CCOC(=O)C1(C(=O)OCC)CC(=O)[C@@]2(C1)OCC[C@H]1OC(=O)C[C@H]12 | > 100 µM (inactive) | > 100 µM (inactive) | > 100 µM (inactive) | > 100 µM (inactive) |  | > 100 µM (inactive) | > 100 µM (inactive) | > 100 µM (inactive) | > 100 µM (inactive) | > 100 µM (inactive) | > 100 µM (inactive) | > 100 µM (inactive) | > 100 µM (inactive) | > 100 µM (inactive) | > 100 µM (inactive) | > 100 µM (inactive) | > 100 µM (inactive) | > 100 µM (inactive) | > 100 | > 100 µM (inactive)
13 | COc1ccccc1N1C(=O)/C(=C\c2cccc(Oc3ccccc3)c2)SC1c1ccccc1 (configuration not stated) | 39.4 µM (inactive) | 21.5 µM (inactive) | 39.6 µM (inactive) | 29.8 µM (inactive) | 47.4 µM (inactive) | 25.7 µM (inactive) | 18.3 µM (inactive) | 15.9 µM (inactive) | 18.7 µM (inactive) | 49 µM (inactive) | 27.7 µM (inactive) | > 100 µM (inactive) | 17.8 µM (inactive) | 30.2 µM (inactive) | 32.4 µM (inactive) | 24.1 µM (inactive) | 38.4 µM (inactive) | 23.9 µM (inactive) | 47.2 | 
14 | CSC(=S)CC(O)[C@@H]1CC2c3ccccc3C1c1ccccc12 (some centres not stated) | 15 µM (inactive) | 13.9 µM (inactive) | > 10 µM (inactive) | 13.2 µM (inactive) | 15.3 µM (inactive) | 12.8 µM (inactive) | 7.11 µM (inactive) |  | 16.6 µM (inactive) | 14.6 µM (inactive) | 8.51 µM (inactive) | 20.7 µM (inactive) | 4.81 µM (inactive) | 18.7 µM (inactive) | 4.33 µM (inactive) | 2.82 µM (inactive) | 3.55 µM (inactive) | 11.7 µM (inactive) | 9.73 | 1.95 µM (inactive)
